The results in this text go back to patent US9169509B2, “Topoisomerase 2b as a predictor of susceptibility to anthracycline-induced cardiotoxicity” (Board of Regents, The University of Texas System, priority 2013, dated 2015).

Series [1] relates to PGC-1α and PGC-1β promoters. Description: Chromatin immunoprecipitation with Top2b antibody at PGC-1 promoters. The class given is cell-based, mouse. The following applies: HL-1 cells (DOX 2 h) and cardiomyocytes isolated 16 h after 25 mg/kg ip. The method, then: FIGS. 7a-e: a, b. PGC-1 expression in HL-1 cells. […] Expression was measured with RT-qPCR. c, d. CHiP analysis in HL-1 cells. HL-1 cardiomyocytes were treated with (right bars) or without (left bars) DOX ([…]) for 2 hrs and isolated for ChIP using the Top2β antibody. The eluted DNA and Input were PCR amplified to detect specific promoter regions represented in the schematic above the respective ChIP data. In the presence of DOX, the Top2b is readily bound to Region #1 and Region #3 of the PGC-1α promoter (c) and Region #1 and #2 of the PGC-1β promoter (d). e. CHiP study in cardiomyocytes. Cardiomyocytes were isolated from control (n=4) and Dox-treated (n=4) mice and subject to ChIP with the Top2b antibody. The data represent real-time PCR ratios for the fold-enrichment of Top2b at the respective promoters. Top2β binds the Region #1 of the PGC-1α and PGC-1β promoters efficiently following Dox treatment.
HL-1 cells were treated with or without DOX (1 μM) for 2 h and subsequently evaluated using the ChIP protocol as previously published (24-26). For ChIP assay on isolated cardiomyocytes, mice were treated with doxorubicin (25 mg/kg, ip) or drug vehicle. […] For each individual treatment sample, the eluted ChIP product was normalized to the Input product to rule out differences in total DNA quantities between control and Dox-treatment samples. […]

The test system of the next series is cardiomyocytes. Nature of the series: Oxygen consumption rate (Seahorse XF96) of isolated cardiomyocytes. The class given is in vivo, mouse. The following applies: wild type cardiomyocytes, 72 hrs after doxorubicin 25 mg/kg; not in Top2b deleted. Here is the method:
FIGS. 5a-c: a. Determination of oxygen consumption rate (OCR). Cardiomyocytes were isolated from hearts of Top2b^+/+ and Top2b^Δ/Δ mice 72 hrs after treatment with doxorubicin (25 mg/kg; right bars) or drug vehicle (left bars). The cardiomyocytes were seeded in 96-well plates for oxygen consumption measurement using a Seahorse XF96 instrument. OCR was measured continuously for 90 min in […] from each mouse. The basic OCR was hardly changed during the 90 min measurement, therefore, the OCR at 90 min was compared among the groups. After measurement, the number of cells was counted. Results were normalized as pmoles of oxygen consumed per min per 1,000 cells. Bars represent means±SEM. Asterisk indicates statistically significant difference (p<0.05). b. ROS production in the hearts. Representative images of heart sections stained with Dihydroethidium (DHE), which, after being oxidized, intercalates into DNA and stains the nuclei red. Hearts were harvested 16 hrs after doxorubicin treatment (25 mg/kg) and snap-frozen as described. Heart sections were stained with DHE immediately. […] Quantification of ROS production in FIG. 5b. The numbers of DHE-positive and total nuclei were counted as described and the percentage of DHE-positive nuclei was determined. Quantitative data (mean±SEM) were shown as a bar graph below the images. […]

For `COc1cccc2c1C(=O)c1c(O)c3c(c(O)c1C2=O)C[C@@](O)(C(=O)CO)C[C@@H]3O[C@H]1C[C@H](N)[C@H](O)[C@H](C)O1` [doxorubicin], the “Top2b binding to the promoter of the PGC-1α and PGC-1β genes in the presence of doxorubicin (ChIP)” value in series [1] is “binds avidly”. Moreover, in the series with cardiomyocytes, the “Oxygen consumption rate (OCR)” value is recorded as “significantly reduced”.
